Experimental findings from patent US20060116399A1, “Diarylmethylidene piperidine derivatives, preparations thereof and uses thereof” (AstraZeneca AB, priority 2003, published 2006) are described below.

The target of one test is T1, cloned human δ receptor (Homo sapiens, UniProt P41143).
T1 construct: expressed in transfected cells
The experiment in a line: δ receptor binding assay, displacement of 125I-Deltorphin II. (In a radioligand displacement assay an active substance lowers the binding of a labelled ligand.)

In the next test the target is T2, cloned human μ receptor (Homo sapiens, UniProt P35372).
T2 construct: expressed in transfected cells; host or cells: human HEK-293S cells, neomycin resistance
T2 sequence (P35372 whole entry): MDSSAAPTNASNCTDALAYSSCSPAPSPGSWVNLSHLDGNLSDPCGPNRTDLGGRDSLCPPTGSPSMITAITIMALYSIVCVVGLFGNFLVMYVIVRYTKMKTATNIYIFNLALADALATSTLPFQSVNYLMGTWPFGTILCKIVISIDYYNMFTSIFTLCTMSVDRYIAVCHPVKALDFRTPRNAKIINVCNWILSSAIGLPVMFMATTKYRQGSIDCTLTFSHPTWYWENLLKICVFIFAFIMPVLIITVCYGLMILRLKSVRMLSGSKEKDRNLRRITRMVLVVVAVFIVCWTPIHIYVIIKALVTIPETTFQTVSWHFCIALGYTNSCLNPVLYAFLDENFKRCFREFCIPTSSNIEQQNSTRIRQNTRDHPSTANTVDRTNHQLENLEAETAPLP
Description: μ receptor binding assay, displacement of 125I-FK33824.

For another test, the target named is T3, human δ receptor (Homo sapiens, UniProt P41143).
T3 construct: expressed in transfected cells
T3 sequence (P41143 whole entry): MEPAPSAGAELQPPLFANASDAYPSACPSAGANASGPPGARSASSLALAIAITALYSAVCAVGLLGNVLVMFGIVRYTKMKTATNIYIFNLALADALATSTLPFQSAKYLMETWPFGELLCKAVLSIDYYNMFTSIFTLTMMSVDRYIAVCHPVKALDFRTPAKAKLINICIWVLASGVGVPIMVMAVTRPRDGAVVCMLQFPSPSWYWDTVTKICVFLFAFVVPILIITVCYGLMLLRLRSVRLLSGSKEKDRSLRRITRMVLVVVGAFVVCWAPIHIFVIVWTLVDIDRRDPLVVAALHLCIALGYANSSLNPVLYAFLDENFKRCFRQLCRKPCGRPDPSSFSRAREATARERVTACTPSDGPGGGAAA
Description: GTP[γ]35S binding functional assay, HEK-293S membranes. The format is biochemical. How it is done: Human 293S cells expressing cloned human κ, δ and μ receptors and neomycin resistance are grown in suspension at 37° C. and 5% CO2 in shaker flasks containing calcium-free DMEM10% FBS, 5% BCS, 0.1% Pluronic F-68, and 600 μg/ml geneticin.
Cells are pelleted and resuspended in lysis buffer (50 mM Tris, pH 7.0, 2.5 mM EDTA, with PMSF added just prior to use to 0.1 mM from a 0.1 M stock in ethanol), incubated on ice for 15 min, then homogenized with a polytron for 30 sec. The suspension is spun at 1000 g (max) for 10 min at 4° C. The supernatant is saved on ice and the pellets resuspended and spun as before. The supernatants from both spins are combined and spun at 46,000 g (max) for 30 min. The pellets are resuspended in cold Tris buffer (50 mM Tris/Cl, pH 7.0) and spun again. The final pellets are resuspended in membrane buffer (50 mM Tris, 0.32 M sucrose, pH 7.0). Aliquots (1 ml) in polypropylene tubes are frozen in dry ice/ethanol and stored at −70° C. until use. The protein concentrations are determined by a modified Lowry assay with sodium dodecyl sulfate.
The agonist activity of the compounds is measured by determining the degree to which the compounds receptor complex activates the binding of GTP to G-proteins to which the receptors are coupled. In the GTP binding assay, GTP[γ]^35S is combined with test compounds and membranes from HEK-293S cells expressing the cloned human opioid receptors or from homogenised rat or mouse brain. Agonists stimulate GTP[γ]^35S binding in these membranes. The EC50 and Emax values of compounds are determined from dose-response curves. Right shifts of the dose response curve by the delta antagonist naltrindole are performed to verify that agonist activity is mediated through delta receptors. For human δ receptor functional assays, EC50 (low) is measured when the human δ receptors used in the assay were expressed at lower levels in comparison with those used in determining EC50 (high). The Emax values were determined in relation to the standard δ agonist SNC80, i.e., higher than 100% is a compound that have better efficacy than SNC80.
Rat brain membranes are thawed at 37° C., passed 3 times through a 25-gauge blunt-end needle and diluted in Mhe GTPγS binding (50 mM Hepes, 20 mM NaOH, 100 mM NaCl, 1 mM EDTA, 5 mM MgCl2, pH 7.4, Add fresh: 1 mM DTT, 0.1% BSA). 120 μM GDP final is added membranes dilutions. The EC50 and Emax of compounds are evaluated from 10-point dose-response curves done in 300 μl with the appropriate amount of membrane protein (20 μg/well) and 100000-130000 dpm of GTPγ^5S per well (0.11-0.14 nM). The basal and maximal stimulated binding are determined in absence and presence of 3 μM SNC-80. The assay performed on HEK 293s cells stably expressing cloned Delta receptors is done in a slightly different buffer (50 mM Hepes, 20 mM NaOH, 200 mM NaCl, 1 mM EDTA, 5 mM MgCl2, pH 7.4, Add fresh: 0.5% BSA, no DTT) and with a 3 μM final conc. of GDP.
For orientation: Binding of GTPγS marks nucleotide exchange on a G protein.

Another test concerns the target cloned human κ receptor (Homo sapiens, UniProt P41145). The experiment in a line: κ receptor binding assay, displacement of 125I-DPDYN. Conditions: Table 1.
[1] abbreviates: Table 2, lower receptor expression, relative to SNC80, range over several compounds, read-out: Human δ % Emax (low).

Molecules are shown by their SMILES. Like-named read-outs stand apart in the source and are kept apart here.

T1 sequence (P41143 whole entry): as above
Chain of cloned human κ receptor (P41145 whole entry): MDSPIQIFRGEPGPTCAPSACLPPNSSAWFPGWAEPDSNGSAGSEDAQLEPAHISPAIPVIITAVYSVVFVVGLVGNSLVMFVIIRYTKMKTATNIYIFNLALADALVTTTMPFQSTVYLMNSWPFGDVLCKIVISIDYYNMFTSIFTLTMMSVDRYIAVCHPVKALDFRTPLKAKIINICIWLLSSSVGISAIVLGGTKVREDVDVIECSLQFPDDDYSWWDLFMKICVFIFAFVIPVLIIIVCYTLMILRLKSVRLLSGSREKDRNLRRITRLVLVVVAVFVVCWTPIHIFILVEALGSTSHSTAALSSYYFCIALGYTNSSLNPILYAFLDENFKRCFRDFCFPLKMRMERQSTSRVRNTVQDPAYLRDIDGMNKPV

As a reminder, the IC50 is the concentration needed to halve the response being measured. A higher IC50 goes with weaker potency. In general, EC50 refers to the concentration giving half of the maximal effect. A low value points to an effect from little substance. As usually defined, the Emax is the maximal effect, on the per cent scale that the assay sets. For the molecule `CCN(CC)C(=O)c1ccc(C(=C2CCN(Cc3cncs3)CC2)c2cccc(NC(=O)OC)c2)cc1` [Compound 5, methyl 3-{{4-[(diethylamino)carbonyl]phenyl}[1-(1,3-thiazol-5-ylmethyl)piperidin-4-ylidene]methyl}phenylcarbamate], the IC50 on cloned human δ receptor is 0.3 to 0.35 nM; at cloned human μ receptor it was 62.8 to 498 nM. On human δ receptor, this molecule had an EC50 of 1.8 to 5.97 nM. Further, at human δ receptor (setting [1]), the maximum response (Emax) fell in the range of 93.7 to 128%.
`CCN(CC)C(=O)c1ccc(C(=C2CCN(Cc3ccccc3)CC2)c2cccc(NC(=O)OC)c2)cc1` [Compound 3, [3-[[4-[(diethylamino)carbonyl]phenyl][1-(phenylmethyl)-4-piperidinylidene]methyl]phenyl]-carbamic acid, methyl ester]: the IC50 at cloned human δ receptor amounted to 0.48 nM; on cloned human μ receptor, 28.7 nM; on cloned human κ receptor it was 188 nM. On human δ receptor, this molecule registered a half-maximal effective concentration (EC50) of 0.62 nM. For the same molecule, the Emax on human δ receptor (Table 1, higher receptor expression, relative to standard δ agonist SNC80, read-out: Human δ % EMax (high)) came to 91.7%.
On to `CCN(CC)C(=O)c1ccc(C(=C2CCN(Cc3ccco3)CC2)c2cccc(NC(=O)OC)c2)cc1` [Compound 2, [3-[[4-[(diethylamino)carbonyl]phenyl][1-(2-furanylmethyl)-4-piperidinylidene]methyl]phenyl]-carbamic acid, methyl ester], for which the IC50 lay in the range of 0.3 to 0.35 nM at cloned human δ receptor and 62.8 to 498 nM at cloned human μ receptor. The concentration for a half-maximal effect (EC50) on human δ receptor lay within 1.8 to 5.97 nM. At human δ receptor (setting [1]), the Emax lay in the range of 93.7 to 128%.
The matching figures for `CCN(CC)C(=O)c1ccc(C(=C2CCN(Cc3cccs3)CC2)c2cccc(NC(=O)OC)c2)cc1` [Compound 1, [3-[[4-[(diethylamino)carbonyl]phenyl][1-(2-thienylmethyl)-4-piperidinylidene]methyl]phenyl]-carbamic acid, methyl ester]: 0.3 to 0.35 nM, 62.8 to 498 nM, 1.8 to 5.97 nM and 93.7 to 128%.
